Measured values published in patent US7994140B2, “Classes of compounds that interact with GPCRs” (Alchemia Limited, priority 2002, dated 2011).

Experiments:
[1] = target: T1, SST5 (Homo sapiens, UniProt P35346); test: GPCR radioligand binding (RLB) assay, somatostatin SST5, [125I]SST-14; settings: for SST5 inhibition at 10 micromolar: recombinant human receptor membranes (HEK 293)
T1 construct: purchased Perkin Elmer BioSignal; host or cells: HEK 293
Summary of the method: (§1)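 Competition binding against radioligand ([125I]NDP-αMSH for MC4, [125I]SST-14 for SST5) on membranes of HEK 293 cells carrying the human receptor; buffer and incubation time optimized per receptor. Filtration through 0.5% PEI-treated glass fiber, washing, then scintillation counting.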

[2] = target: T2, MC4 (Homo sapiens, UniProt P32245); test: GPCR radioligand binding (RLB) assay, melanocortin MC4, [125I]NDP-αMSH
T2 construct: purchased Perkin Elmer BioSignal; host or cells: HEK 293
T2 sequence (P32245 whole entry): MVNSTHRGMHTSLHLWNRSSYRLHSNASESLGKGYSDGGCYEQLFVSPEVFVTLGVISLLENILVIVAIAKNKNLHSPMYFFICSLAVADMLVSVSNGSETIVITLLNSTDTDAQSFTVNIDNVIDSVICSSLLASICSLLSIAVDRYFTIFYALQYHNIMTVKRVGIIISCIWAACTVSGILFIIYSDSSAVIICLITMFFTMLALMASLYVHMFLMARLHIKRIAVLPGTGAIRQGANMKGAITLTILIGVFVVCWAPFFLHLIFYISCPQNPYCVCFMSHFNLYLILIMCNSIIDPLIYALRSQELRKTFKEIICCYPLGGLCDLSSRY
Summary of the method: as §1

[3] = 10 micromolar compound, recombinant human receptor membranes (HEK 293)
[4] = 10 micromolar, Example Library 4
[5] = 10 micromolar compound, Example Library 8

T1 sequence (P35346 whole entry): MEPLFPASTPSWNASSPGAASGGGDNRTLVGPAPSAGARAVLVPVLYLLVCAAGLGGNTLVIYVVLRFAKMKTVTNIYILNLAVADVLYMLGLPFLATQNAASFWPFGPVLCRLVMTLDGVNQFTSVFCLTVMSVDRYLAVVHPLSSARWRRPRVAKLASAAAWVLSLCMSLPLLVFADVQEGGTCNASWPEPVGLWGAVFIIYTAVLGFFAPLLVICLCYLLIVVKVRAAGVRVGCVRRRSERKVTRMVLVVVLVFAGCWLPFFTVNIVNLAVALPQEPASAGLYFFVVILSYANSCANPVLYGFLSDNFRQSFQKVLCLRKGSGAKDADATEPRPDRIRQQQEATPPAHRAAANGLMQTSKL

Compound | SST5 inhibition at 10 micromolar ([1]; 10 micromolar compound) | MC4 inhibition at 10 micromolar [2, 3] | SSTS inhibition at 10 micromolar [1, 4] | MC4 inhibition at 10 micromolar [2, 4] | SSTS inhibition at 10 micromolar [1, 5]
CO[C@H]1[C@H](O)[C@@H](COCc2ccc3ccccc3c2)OC(OCCc2ccccc2)[C@@H]1NC(=O)CCCNC(=N)N (stereo partly drawn) [Compound 103] | + (Indicates inhibition greater than . . . 50%) | + (Indicates inhibition greater than . . . 50%) | – | – | –
CSC1OC(COCc2ccccc2)C(O)C(OCc2ccccc2)C1NC(=O)CCCNC(=N)N (stereo not drawn) [Compound 124] | + (Indicates inhibition greater than . . . 50%) | + (Indicates inhibition greater than . . . 50%) | – | – | –
COCC1OC(OCCc2ccccc2)C(NC(=O)CNC(=N)N)C(OCc2ccc(-c3ccccc3)cc2)C1O (stereo not drawn) [Compound 273] | – | – | + (Indicates inhibition greater than . . . 50%) | + (Indicates inhibition greater than . . . 50%) | –
COCC1OC(OCc2ccccc2)C(NC(=O)CCN)C(OCc2ccc(Cl)cc2)C1O (stereo not drawn) [Compound 221] | – | – | + (Indicates inhibition greater than . . . 50%) | + (Indicates inhibition greater than . . . 50%) | –
CSC1OC(COCc2ccc(-c3ccccc3)cc2)C(O)C(OCc2ccc(Cl)cc2)C1NC(=O)CN (stereo not drawn) [Compound 155] | + (Indicates inhibition greater than . . . 50%) | + (Indicates inhibition greater than . . . 50%) | – | – | –
CSC1OC(COCc2ccc(Cl)cc2)C(O)C(OCc2ccc3ccccc3c2)C1NC(=O)CCN (stereo not drawn) [Compound 199] | + (Indicates inhibition greater than . . . 50%) | + (Indicates inhibition greater than . . . 50%) | – | – | –
CSC1OC(COC(=O)CCC2CNc3ccccc32)C(O)C(OCc2cccc(N)c2)C1NCc1ccccc1 (stereo not drawn) [Compound 311] | + (Indicates inhibition greater than . . . 50%) | + (Indicates inhibition greater than . . . 50%) | – | – | –
CSC1OC(COCc2ccccc2)C(O)C(OCc2ccc(-c3ccccc3)cc2)C1NC(=O)CCNC(=N)N (stereo not drawn) [Compound 170] | + (Indicates inhibition greater than . . . 50%) | + (Indicates inhibition greater than . . . 50%) | – | – | –
CSC1OC(COCc2ccc(-c3ccccc3)cc2)C(O)C(OCc2ccc(-c3ccccc3)cc2)C1NC(=O)CCN (stereo not drawn) [Compound 181] | + (Indicates inhibition greater than . . . 50%) | + (Indicates inhibition greater than . . . 50%) | – | – | –
COC[C@H]1OC(OCc2ccc(-c3ccccc3)cc2)[C@H](NC(=O)CCCN)[C@@H](OCc2ccc(-c3ccccc3)cc2)[C@@H]1O (stereo partly drawn) [Compound 28] | + (Indicates inhibition greater than . . . 50%) | + (Indicates inhibition greater than . . . 50%) | – | – | –
CSC1OC(COCc2ccc(-c3ccccc3)cc2)C(O)C(OCc2ccc(-c3ccccc3)cc2)C1NC(=O)CNC(=N)N (stereo not drawn) [Compound 180] | + (Indicates inhibition greater than . . . 50%) | + (Indicates inhibition greater than . . . 50%) | – | – | –
COCC1OC(OCCc2ccccc2)C(NC(=O)CCCN)C(OCc2ccc3ccccc3c2)C1O (stereo not drawn) [Compound 282] | – | – | + (Indicates inhibition greater than . . . 50%) | + (Indicates inhibition greater than . . . 50%) | –
CSC1OC(COCc2ccc(-c3ccccc3)cc2)C(O)C(OCc2ccc3ccccc3c2)C1NC(=O)CNC(=N)N (stereo not drawn) [Compound 204] | + (Indicates inhibition greater than . . . 50%) | + (Indicates inhibition greater than . . . 50%) | – | – | –
CSC1O[C@H](COCc2cccc(N)c2)[C@@H](O)[C@H](OCc2ccccc2)[C@H]1NC(=O)Cc1c[nH]c2ccccc12 (stereo partly drawn) [Compound 336] | – | + (Indicates inhibition greater than . . . 50%) | – | – | + (Indicates inhibition greater than . . . 50%)
COC[C@H]1OC(OCc2ccc(Cl)cc2)[C@H](NC(=O)CCCN)[C@@H](OCc2ccc3ccccc3c2)[C@@H]1O (stereo partly drawn) [Compound 46] | + (Indicates inhibition greater than . . . 50%) | + (Indicates inhibition greater than . . . 50%) | – | – | –
COCC1OC(OCCc2ccccc2)C(NC(=O)CCCN)C(OCc2ccc(Cl)cc2)C1O (stereo not drawn) [Compound 270] | – | – | + (Indicates inhibition greater than . . . 50%) | + (Indicates inhibition greater than . . . 50%) | –
CSC1OC(COCc2ccccc2)C(O)C(OCc2ccc(-c3ccccc3)cc2)C1NC(=O)CCN (stereo not drawn) [Compound 169] | + (Indicates inhibition greater than . . . 50%) | + (Indicates inhibition greater than . . . 50%) | – | – | –
COC[C@H]1OC(OCc2ccc(Cl)cc2)[C@H](NC(=O)CCCNC(=N)N)[C@@H](OCc2ccc(-c3ccccc3)cc2)[C@@H]1O (stereo partly drawn) [Compound 45] | + (Indicates inhibition greater than . . . 50%) | + (Indicates inhibition greater than . . . 50%) | – | – | –

Compound | SST5 inhibition at 10 micromolar ([1]; 10 micromolar compound) | MC4 inhibition at 10 micromolar [2, 3] | SSTS inhibition at 10 micromolar [1, 4] | MC4 inhibition at 10 micromolar [2, 4] | SSTS inhibition at 10 micromolar [1, 5]
CSC1OC(COCc2ccc(-c3ccccc3)cc2)C(O)C(OCc2ccc(Cl)cc2)C1NC(=O)CCCNC(=N)N (stereo not drawn) [Compound 160] | + (Indicates inhibition greater than . . . 50%) | + (Indicates inhibition greater than . . . 50%) | – | – | –
COCC1OC(OCc2ccc3ccccc3c2)C(NC(=O)CN)C(OCc2ccc3ccccc3c2)C1O (stereo not drawn) [Compound 302] | – | – | + (Indicates inhibition greater than . . . 50%) | + (Indicates inhibition greater than . . . 50%) | –
CSC1OC(COCc2ccc3ccccc3c2)C(O)C(OCc2ccc(-c3ccccc3)cc2)C1NC(=O)CNC(=N)N (stereo not drawn) [Compound 186] | + (Indicates inhibition greater than . . . 50%) | + (Indicates inhibition greater than . . . 50%) | – | – | –
COCC1OC(OCc2ccc3ccccc3c2)C(NC(=O)CCCNC(=N)N)C(OCc2ccc(-c3ccccc3)cc2)C1O (stereo not drawn) [Compound 301] | – | – | + (Indicates inhibition greater than . . . 50%) | + (Indicates inhibition greater than . . . 50%) | –
COC1C(O)C(COCc2ccc(-c3ccccc3)cc2)OC(OCc2ccc(Cl)cc2)C1NC(=O)CCCNC(=N)N (stereo not drawn) [Compound 86] | + (Indicates inhibition greater than . . . 50%) | + (Indicates inhibition greater than . . . 50%) | – | – | –
COCC1OC(OCc2ccc3ccccc3c2)C(NC(=O)CNC(=N)N)C(OCc2ccc(Cl)cc2)C1O (stereo not drawn) [Compound 291] | – | – | + (Indicates inhibition greater than . . . 50%) | + (Indicates inhibition greater than . . . 50%) | –
CSC1OC(COCc2ccc(Cl)cc2)C(O)C(OCc2ccc(-c3ccccc3)cc2)C1NC(=O)CCNC(=N)N (stereo not drawn) [Compound 176] | + (Indicates inhibition greater than . . . 50%) | + (Indicates inhibition greater than . . . 50%) | – | – | –
CSC1OC(COCc2ccc(Cl)cc2)C(O)C(OCc2ccc(-c3ccccc3)cc2)C1NC(=O)CCCN (stereo not drawn) [Compound 177] | + (Indicates inhibition greater than . . . 50%) | + (Indicates inhibition greater than . . . 50%) | – | – | –
CSC1OC(COCc2ccc3ccccc3c2)C(O)C(OCc2ccccc2)C1NC(=O)CN (stereo not drawn) [Compound 137] | + (Indicates inhibition greater than . . . 50%) | + (Indicates inhibition greater than . . . 50%) | – | – | –
COC1C(O)C(COCc2ccc(Cl)cc2)OC(OCc2ccc3ccccc3c2)C1NC(=O)CCCN (stereo not drawn) [Compound 77] | + (Indicates inhibition greater than . . . 50%) | + (Indicates inhibition greater than . . . 50%) | – | – | –
CO[C@H]1[C@H](O)[C@@H](COCc2ccc(Cl)cc2)OC(OCc2ccc(Cl)cc2)[C@@H]1NC(=O)CCCN (stereo partly drawn) [Compound 94] | + (Indicates inhibition greater than . . . 50%) | + (Indicates inhibition greater than . . . 50%) | – | – | –
COCC1OC(OCCc2ccccc2)C(NC(=O)CCCNC(=N)N)C(OCc2ccccc2)C1O (stereo not drawn) [Compound 265] | – | – | + (Indicates inhibition greater than . . . 50%) | + (Indicates inhibition greater than . . . 50%) | –
CSC1OC(COCc2ccc(Cl)cc2)C(O)C(OCc2ccc3ccccc3c2)C1NC(=O)CCNC(=N)N (stereo not drawn) [Compound 200] | + (Indicates inhibition greater than . . . 50%) | + (Indicates inhibition greater than . . . 50%) | – | – | –
CSC1OC(COCc2ccc(Cl)cc2)C(O)C(OCc2ccc(-c3ccccc3)cc2)C1NC(=O)CCN (stereo not drawn) [Compound 175] | + (Indicates inhibition greater than . . . 50%) | + (Indicates inhibition greater than . . . 50%) | – | – | –
CSC1OC(COCc2ccc(Cl)cc2)C(O)C(OCc2ccc(Cl)cc2)C1NC(=O)CCN (stereo not drawn) [Compound 151] | + (Indicates inhibition greater than . . . 50%) | + (Indicates inhibition greater than . . . 50%) | – | – | –
CSC1OC(COCc2ccc(Cl)cc2)C(O)C(OCc2ccc3ccccc3c2)C1NC(=O)CN (stereo not drawn) [Compound 197] | + (Indicates inhibition greater than . . . 50%) | + (Indicates inhibition greater than . . . 50%) | – | – | –
CSC1O[C@H](COCc2cccc(N)c2)[C@@H](O)[C@H](OCc2ccc(Cl)cc2)[C@H]1NC(=O)Cc1ccccc1 (stereo partly drawn) [Compound 339] | – | + (Indicates inhibition greater than . . . 50%) | – | – | + (Indicates inhibition greater than . . . 50%)
COCC1OC(OCc2ccc(Cl)cc2)C(NC(=O)CN)C(OCc2ccc(Cl)cc2)C1O (stereo not drawn) [Compound 242] | – | – | + (Indicates inhibition greater than . . . 50%) | + (Indicates inhibition greater than . . . 50%) | –
